Values after ≈ are worked out from the molar mass of the structure shown. Read-outs that look alike come from different tables or passages of the source.
Legend:
S. aureus ATCC 29213 = assay: In vitro susceptibility, broth microdilution MIC; assay type: cell-based, Staphylococcus aureus; settings: Staphylococcus aureus, read-out: MIC
Method: The antimicrobial activities of PK inhibitor candidates were determined using the 96-well microtiter standard 2-fold serial broth microdilution method as described by CLSI (formerly NCCLS) with the various gram-positive and gram-negative bacteria species mentioned above. Bacteria from a single colony were grown, overnight in either BHI Broth (VRE), mueller hinton broth (S. aureus 29213; MRSA USA400) or L-broth (E. coli, P. aeruginosa, S. typhimuriu, K. Pneumonia and A. baumannii). […] Culture plates were incubated for 18-24 h at 37° C., and optical density at 600 nm (OD600) was measured using a Benchmark Plus™ microplate spectrophotometer (Bio-Rad™). The absorbance control values for the series containing CAMHB and inhibitor were subtracted as background from the corresponding infected wells. The MIC was defined as the lowest concentration of test compound leading to complete inhibition of cell growth in relationship to compound-free control wells as determined by optical density. […] All assays were run in triplicate (Tables 1-6) or duplicate. Experiments were replicated at least twice to verify reproducibility using the above conditions.

MRSA PK = target: T1, MRSA PK (Staphylococcus aureus, UniProt Q6GG09); assay: MRSA PK activity, continuous LDH-coupled assay; assay type: biochemical, S. aureus (MRSA strain Sanger 252)
T1 construct: His tag (pET-28a(+) vector) (N); made in house; host or cells: E. coli BL-21 (DE3)
Source text: Genomic DNA of MRSA strain Sanger 252 extracted using DNeasy Tissue Kit™ (Qiagen™) was used as a template to generate the His-tagged MRSA PK. Human cDNA from MCF-7 breast cancer cell line (courtesy of Dr. J Wong, BC Cancer Research Center (Vancouver, Canada) was used as a template to generate the full-length human M2 PK enzyme. The following primer sets were used creating appropriate restriction sites (NdeI and XhoI sites underlined): For cloning of MRSA PK: M27F 5′-[…]-3′ and M27R 5′-[…]-3′, for cloning of human M2 PK isoform: hM2F 5′-[…]-3′ and hM2R 5′-[…]-3′. The resulting PCR fragments for each construct were cloned into the NdeI and XhoI unique sites of the bacterial expression vector pET-28a (+) (Novagen™). […] The sequence and the correct reading frame of all constructs were verified by sequencing. Human M1, R and L PK constructs in pET-28-a(+) vectors (courtesy of Dr. L. Cantley, Harvard Medical, School (Boston, USA)) were used to generate relevant recombinant His-tagged human PK isoforms.
MRSA and human constructs in pET-28a(+) were used to express relevant recombinant PK proteins in E. coli BL-21 (DE3). The proteins were expressed and purified using Ni-NTA agarose (Qiagen™) according to the manufacturer's protocol. Briefly, cells were grown to an absorbance of 0.4-0.5 at 600 nm in 2×YT medium, then induced with 0.1 mM IPTG for 3 h at 20° C. Cells were lysed by sonication on ice (3×10-s bursts with a 30-s recovery between bursts) in lysis buffer (0.2 mg/ml lysozyme, 50 mM Tris pH 7.5, 10 mM MgCl2, 200 mM NaCl, 100 mM KCl, 10% glycerol, 10 mM imidazole, 0.5% NP-40 and 1 mM DTT containing Complete™ protease inhibitor). Cell lysates were cleared by centrifugation (18,000×g in a Beckman™ JA-20 rotor) for 20 min at 4° C. and PK isoforms were purified by batch binding to Ni-NTA resin. The resins were then packed in columns (1×2 cm) and washed with 400 column volumes lysis buffer containing 30 mM imidazole. His-tagged PK isoforms were eluted with the same buffer containing 300 mM imidazole. The proteins were dialyzed overnight at 4° C. against 2000 volumes of ice-cold 30 mM Tris pH 7.5, 25 mM KCl, 5 mM MgCl2, 10% glycerol and 1 mM DTT to remove imidazole. All purification steps were done at 4° C.; enzymes were flash-frozen and stored at −70° C. […] Purity and physical integrity of proteins were assessed using SDS-polyacrylamide gel electrophoresis (SDS-PAGE) followed by coomassie blue staining. Protein concentration was estimated by Bradford assay (Bio-Rad Protein Assay™) using bovine serum albumin as a standard.
Candidate MRSA PK inhibitors were assayed for their ability to inhibit enzymatic activities of MRSA and human PKs. PK activity was determined using a continuous assay coupled to lactate dehydrogenase (LDH) in which the change in absorbance at 340 nm owing to oxidation of NADH was measured using a Benchmark Plus™ microplate spectrophotometer (Bio-Rad Laboratories, Hercules, Calif.). […] Reactions were initiated by the addition of 15 nM of one of the PK enzymes. PK activity proportional to the rate of change at 340 nm was expressed as specific activity (μmol/min/mg), which is defined as the amount of PK that catalyzes the formation of one micromole of either product per minute. Inhibitors were dissolved in DMSO with the final concentration of the solvent never exceeding 1% of the assay volume. IC50 values were calculated by curve fitting on a four-parameter dose-response model with variable slope using Graphpad Prism 5.0™ (GraphPad™ Software Inc., La Jolla, Calif.). […] Reactions were performed at 30° C. for up to 5 min. All values determined represent at least two measurements, in triplicate (Tables 1-6) or duplicate unless mentioned otherwise.

[1] = ATCC29213, Tables 1-6 and text, minimum concentration to give >98% inhibition of growth
[2] = read-out: % inhibition at the highest concentration tested (IC50)
[3] = ATCC29213, Table 8, tested at least in duplicate, differing values all given

T1 sequence (Q6GG09 whole entry): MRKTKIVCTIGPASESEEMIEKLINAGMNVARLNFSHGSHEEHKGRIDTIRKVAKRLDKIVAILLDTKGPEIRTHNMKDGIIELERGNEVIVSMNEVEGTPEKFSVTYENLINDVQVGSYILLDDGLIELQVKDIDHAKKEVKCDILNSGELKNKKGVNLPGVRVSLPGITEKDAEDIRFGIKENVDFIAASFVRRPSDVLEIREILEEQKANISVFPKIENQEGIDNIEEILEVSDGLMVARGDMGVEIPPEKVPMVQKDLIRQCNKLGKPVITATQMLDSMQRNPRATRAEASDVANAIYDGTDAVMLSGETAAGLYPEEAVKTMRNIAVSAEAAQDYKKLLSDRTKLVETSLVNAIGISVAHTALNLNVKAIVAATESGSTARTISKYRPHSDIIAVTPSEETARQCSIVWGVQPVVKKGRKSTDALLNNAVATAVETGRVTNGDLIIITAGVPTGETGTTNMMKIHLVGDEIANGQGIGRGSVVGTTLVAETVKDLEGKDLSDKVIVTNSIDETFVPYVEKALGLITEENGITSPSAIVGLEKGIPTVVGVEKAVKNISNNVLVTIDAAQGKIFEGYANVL

Row | SMILES | MIC (S. aureus ATCC 29213; [1]) [µg/mL] | MIC (S. aureus ATCC 29213; [3]) [µg/mL] | IC50 (MRSA PK) [nM] | further results
1 | O=C(c1cc2ccc(Br)cc2[nH]1)c1cc(Br)ccc1O [Compound 87, (6-Bromo-1H-indol-2-yl)(5-bromo-2-hydroxyphenyl)methanone] | > 64 |  |  | inhibition at 10 µM (MRSA PK; [2]): 58%
2 | O=C(c1c(/C=C/c2ccc(Br)cn2)[nH]c2cc(Br)ccc12)C(F)(F)F [Compound 174, (E)-1-(6-Bromo-2-(2-(5-bromopyridin-2-yl)vinyl)-1H-indol-3-yl)-2,2,2-trifluoroethanone] |  | 32 (≈ 67.5 µM) | > 1000 | 
3 | O=C(Nc1nc2ccc(Br)cc2s1)c1cc(Br)cc(Br)c1O [Compound 85, 3,5-dibromo-N-(6-bromobenzo[d]thiazol-2-3/1)-2-hydroxybenzamide] | 1 (≈ 1.97 µM) |  | 4.1 | 
4 | O=C(c1c(/C=C/c2ccc(Cl)cc2)[nH]c2cc(Br)c(F)cc12)C(F)(F)F [Compound 175, (E)-1-(6-Bromo-2-(4-chlorostyryl)-5-fluoro-1H-indol-3-yl)-2,2,2-trifluoroethanone] |  | 2 (≈ 4.48 µM) | 100 to 1000 | 
5 | Brc1ccc2cc(CCc3cn4c(n3)CCCC4)[nH]c2c1 [Compound 126, 2-(2-(6-Bromo-1H-indol-2-yl)ethyl)-5,6,7,8-tetrahydroimidazo[1,2-a]pyridine] |  | 64 (≈ 186 µM) | > 100000 | 
6 | COc1ccc(Br)cc1C(=O)Nc1nc2ccc(Br)cc2s1 [Compound 68, 5-Bromo-N-(6-bromobenzo[d]thiazol-2-yl)-2-methoxybenzamide] | > 64 |  | 8.3 | 
7 | Fc1cc2cc(/C=C/c3ccc(Cl)cc3)[nH]c2cc1Br [Compound 161, (E)-6-Bromo-2-(4-chlorostyryl)-5-fluoro-1H-indole] |  | > 64 | < 50 | 
8 | Brc1ccc2cc(-c3ccc(-c4ccn[nH]4)s3)[nH]c2c1 [Compound 81, 2-(5-(1H-Pyrazol-5-yl)thiophen-2-yl)-6-bromo-1H-indole] | 0.5 (≈ 1.45 µM) |  | 74.5 | 
9 | COC(=O)c1c(-c2cc3cc(Br)c(Br)cc3[nH]2)[nH]c2cc(Br)c(Br)cc12 [Compound 39d] | 4 (≈ 6.6 µM) |  | 2.1 | 
10 | O=C(Nc1nc2ccc(Br)cc2s1)c1cccc(Cl)c1O [Compound 83, N-(6-bromobenzo[d]thiazol-2-yl)-3-chloro-2-hydroxybenzamide] | 4 (≈ 10.4 µM) |  |  | inhibition at 1 µM (MRSA PK; [2]): 89%
11 | Brc1ccc(-c2cncc(-c3cc4ccccc4[nH]3)n2)cc1 [Compound 60, 2-(6-(4-Bromophenyl)pyrazin-2-yl)-1H-indole] | > 64 |  |  | inhibition at 10 µM (MRSA PK; [2]): 79%
12 | CC(=O)c1c(CCc2ccccc2)[nH]c2cc(Br)ccc12 [Compound 39a, 1-(6-bromo-2-phenethyl-1H-indol-3-yl)ethanone] | > 64 |  | 608 | 
13 | Brc1ccc(-c2c[nH]c3cc(Br)ccc23)cc1 [Compound 57, 6-bromo-3-(4-bromophenyl)-1H-indole] | 2 (≈ 5.7 µM) |  |  | IC50 (MRSA PK; Tables 1-6, 2 mM ADP, 10 mM PEP, 15 nM PK, read-out: IC50): 102 nM
14 | O=C(Nc1ccc(Br)cc1)c1cc2ccc(Br)cc2[nH]1 [Compound 63, 6-Bromo-N-(4-bromophenyl)-1H-indole-2-carboxamide] | > 64 |  | 9.7 | 
15 | Cc1cnc(/C=C/c2cc3ccc(Br)cc3[nH]2)cn1 [Compound 109, (E)-6-Bromo-2-(2-(5-methylpyrazin-2-yl)vinyl)-1H-indole] |  | > 64 | > 1000 | 
16 | Clc1cccc(/C=C/c2cc3ccc(Br)cc3[nH]2)c1 [Compound 96, (E)-6-Bromo-2-(3-chlorostyryl)-1H-indole] |  | > 64 | 100 to 1000 | 
17 | Brc1cncc(CCc2cc3ccc(Br)cc3[nH]2)c1 [Compound 121, 6-Bromo-2-(2-(5-bromopyridin-3-yl)ethyl)-1H-indole] |  | > 64 | > 1000 | 
18 | Clc1cc(Cl)cc(CCc2cc3ccc(Br)cc3[nH]2)c1 [Compound 119, 6-Bromo-2-(3,5-dichlorophenethyl)-1H-indole] |  | > 64 | > 100000 | 
19 | CC(=O)c1c(CCc2cn3c(n2)CCCC3)[nH]c2cc(Br)ccc12 [Compound 127, 1-(6-Bromo-2-(2-(5,6,7,8-tetrahydroimidazo[1,2-a]pyridin-2-yl)ethyl)-1H-indol-3-yl)ethan-1-one] |  | 64 (≈ 166 µM) | > 100000 | 
20 | COC(=O)c1c(NCc2cn3ccccc3n2)[nH]c2cc(Br)ccc12 [Compound 166, Methyl 6-bromo-2-(imidazo[1,2-a]pyridin-2-ylmethylamino)-1H-indole-3-carboxylate] |  | > 64 | > 1000 | 
21 | C(=C\c1cc2ccccc2[nH]1)/c1cc2ccccc2[nH]1 [Compound 44] | > 64 |  |  | inhibition at 10 µM (MRSA PK; [2]): 63%
22 | CC(C)C(=O)c1c(CCc2ccc(Cl)cc2)[nH]c2cc(Br)ccc12 [Compound 39c, 1-(6-bromo-2-(4-chlorophenethyl)-1H-indol-3-yl)-2-methylpropan-1-one] | 4 (≈ 9.88 µM) |  | 28 | 
23 | Brc1ccc2[nH]c(-c3ccc(-c4cc5cc(Br)ccc5[nH]4)s3)cc2c1 [Compound 43, 2,5-bis(5-Bromo-1H-indol-2-yl)thiophene] | > 64 |  |  | inhibition at 10 µM (MRSA PK; [2]): 50%
24 | O=C(Nc1ccc(Br)cc1)c1[nH]c2cc(Br)ccc2c1C(=O)O [Compound 132, 6-Bromo-2-((4-bromophenyl)carbamoyl)-1H-indole-3-carboxylic acid] |  | 16 (≈ 36.5 µM) | < 50 | 
25 | COC(=O)c1c(C(=O)Nc2ccc(Cl)cn2)[nH]c2cc(Br)ccc12 [Compound 137, Methyl 6-bromo-2-((5-chloropyridin-2-yl)carbamoyl)-1H-indole-3-carboxylate] |  | > 64 |  | EC50 (MRSA PK): 13.2 nM

Reference: patent publication US20170216252A1, “ANTI-BACTERIAL PYRUVATE KINASE MODULATOR COMPOUNDS, COMPOSITIONS, USES AND METHODS” (SIMON FRASER UNIVERSITY, priority 2014, published 2017)
